Data taken from article PMC12362764, “Novel Cyano‐Artemisinin Dimer ZQJ29 Targets PARP1 to Induce Ferroptosis in Pancreatic Cancer Treatment” (Advanced Science, 2025).

Experiments:
PANC-1 and KP4 cells = assay: CCK-8 viability after PARP1 siRNA knockdown; assay type: cell-based; conditions: PARP1-siRNA transfection, ZQJ29 1 µM, 24 h
Description: (§1) Cell viability was evaluated using the Cell Counting Kit‐8 (Beyotime, Shanghai, China) assay. Cells were seeded in 96‐well plates at a density of 2×10^3 cells to allow for attachment. After treatment with ZQJ29 (0.001, 0.01, 0.1, 10, and 25 µM) for 24, 48, and 72 h, 10 µL of CCK‐8 solution was added to each well and incubated for 1 h. The optical density values were then measured at 450 nm using a multifunctional enzyme‐linked immunosorbent assay reader (Tecan, Spark, Switzerland).
A short interfering RNA (siRNA) targeting human PARP1 was designed and synthesized by GenePharma (Shanghai, China). The sequences of the siRNAs are detailed in Table S5 (Supporting Information). PANC‐1 and KP4 Cells were cultured in six‐well plates until they reached 70% confluence. The cells were then transfected with 50 nM siRNA‐PARP1 or a negative control with Lipofectamine 2000 (Thermo Fisher, USA) for 24 h, according to the manufacturer's instructions.

PANC-1 tumors = assay: PANC-1 subcutaneous xenograft antitumor activity; assay type: in vivo, BALB/c nude mice
Description: Five‐week‐old male BALB/c nude mice were purchased from Shanghai Jihui Laboratory Animal Breeding Co., Ltd. (Shanghai, China). After a one‐week acclimatization period, PANC‐1 cells were subcutaneously injected at a dose of 5 × 10^6 cells per mouse. Four weeks post‐injection, once tumor volumes reached 50–100 mm^3, the tumor‐bearing animals were randomly divided into four groups, each consisting of six animals. ZQJ29 was prepared in a 0.5% CMC‐Na solution, while OXA was dissolved in saline. The control group was treated with oral gavage of 0.5% CMC‐Na, while the positive control group was administered intraperitoneal injections of OXA at a dosage of 3 mg kg^−1 every three days. The test groups were treated with oral gavage of ZQJ29 at dosages of 25 and 50 mg kg day^−1. Mouse weights were monitored every other day. Tumor measurements were taken every other day using calipers, and the tumor volume was calculated using the following formula: ½ × length × width^2. Drug administered continued for three weeks. After blood collection at the end of the administration, the mice were humanely euthanized, and their vital organs were promptly harvested, preserved, and embedded in paraffin for H&E staining.

PANC-1 = assay: Label-free proteomics; assay type: cell-based; conditions: PANC-1, 5 µM ZQJ29 vs DMSO, 24 h
Description: PANC‐1 cells were inoculated into 6‐well plates at ≈2 × 10^5 cells per well and grown for 24 h. After this period, the cells were treated with 5 µM ZQJ29 and an equal volume of solvent (DMSO) for an additional 24 h. Following treatment, the cells were removed from the incubator, and the medium was aspirated and discarded. The cells were washed twice with pre‐cooled PBS, which was then discarded. Next, 30 µL of RIPA lysis buffer containing PMSF (Yeasen, Shanghai, China) was added, and the cells were scraped off quickly using a cell scraper. The cell suspension was collected in 1.5 mL EP tubes and placed on ice. Cells were homogenized using ultrasound (3s × 15 times at 4s intervals), and the mixture was kept on ice for 10–15 min until the foam subsided. The centrifuge was pre‐cooled to 4 °C and centrifuged at 12 000 rpm for 15 min. The supernatant was collected to obtain the protein.
For each group of 3 samples, the protein concentration was determined by the BCA Protein Assay Kit (Beyotime, Shanghai, China). A total of 100 µg of protein was aspirated from each group. Five times the volume of acetone/ethanol/formic acid (50:50:0.1, v/v) was added, and the mixture was thoroughly mixed before allowing the protein to precipitate overnight at −20 °C. […] Finally, the sample was analyzed using instrumental LC‐MS (Agilent, USA).

THLE-2 = assay: CCK-8 cytotoxicity assay, THLE-2 (normal cell line); assay type: cell-based; conditions: Homo sapiens, 72 h
Description: as §1

KP4 = assay: CCK-8 cytotoxicity assay, KP4; assay type: cell-based
Description: as §1

KP4 cells = assay: Cell cycle analysis (PI, flow cytometry), KP4; assay type: cell-based; conditions: KP4, 24 h
Description: PANC‐1 and KP4 cells were placed in 6 cm dishes and exposed to designated concentrations of ZQJ29 (1 µM) for 24 h before trypsinization. After centrifugation, the cells were secured and preserved in ice‐cold 70% ethanol and stored at 4 °C for 24 h. They were then thoroughly washed with PBS multiple times. Next, the fixed cells were incubated in PBS supplemented with RNase and PI solution for 30 min at 37 °C, protected from light exposure. Cell cycle progression was assessed using a flow cytometer. This experimental procedure was systematically conducted in three separate trials, with each trial done in triplicate. Cell cycle kits were obtained from Beyotime (Shanghai, China).

HCT116 = assay: CCK-8 cytotoxicity assay, HCT116; assay type: cell-based; conditions: Homo sapiens, HCT-116; HCT116, 72 h
Description: as §1

HPDE6-C7 = assay: CCK-8 cytotoxicity assay, HPDE6-C7 (normal cell line); assay type: cell-based; conditions: HPDE6c7, 72 h
Description: as §1

[1] = tumor tissue and proteomic analyses

## CC1CCC2C(C)C(OCCN(C#N)CCOC3OC4OC5(C)CCC6C(C)CCC(C3C)C46OO5)OC3OC4(C)CCC1C32OO4 (centres unmarked) [ZQJ29]
PANC-1 and KP4 cells
  proliferation inhibition by ZQJ29 upon PARP1 knockdown: markedly reversed
PANC-1 tumors; 25 or 50 mg/kg oral, vs control group
  tumor size and weight: significantly reduced
PANC-1 tumors; ZQJ29 25 and 50 mg/kg/day oral gavage, OXA 3 mg/kg i.p. every three days, three weeks, vs control
  tumor growth: effectively inhibited
PANC-1 tumors; after treatment, vs control
  expression of Ki67 and PCNA in tumor tissue (IHC): significantly reduced
PANC-1 tumors; [1]
  expression of PARP1, SLC7A11 and GPX4: downregulated
  expression of TP53: upregulated
PANC-1
  PARP1 protein level (proteomics): prominently down‐regulated
THLE-2
  IC50: > 10000 nM
KP4; Homo sapiens, KP-4, KP4, as printed in the text
  IC50: 885 ± 106 nM
KP4; KP4 cells
  enhanced cytotoxic effect compared to OXA and DHA: 10 fold
KP4; discussion, cell line not stated
  potency of antitumor over DHA: 10 fold
KP4 cells
  cell cycle arrest: remarkable G2/M phase arrest
HCT116
  IC50: 1020 ± 500 nM
HPDE6-C7
  IC50: > 10000 nM
